The record followed here is patent publication US20250122174A1 (Shenzhen Yuanli Shenwan Innovative Medicine Co., Ltd., priority 2022, published 2025).

The structures appear in SMILES notation.

Sequence of HPK1 (Q92918 1-346 limits assumed): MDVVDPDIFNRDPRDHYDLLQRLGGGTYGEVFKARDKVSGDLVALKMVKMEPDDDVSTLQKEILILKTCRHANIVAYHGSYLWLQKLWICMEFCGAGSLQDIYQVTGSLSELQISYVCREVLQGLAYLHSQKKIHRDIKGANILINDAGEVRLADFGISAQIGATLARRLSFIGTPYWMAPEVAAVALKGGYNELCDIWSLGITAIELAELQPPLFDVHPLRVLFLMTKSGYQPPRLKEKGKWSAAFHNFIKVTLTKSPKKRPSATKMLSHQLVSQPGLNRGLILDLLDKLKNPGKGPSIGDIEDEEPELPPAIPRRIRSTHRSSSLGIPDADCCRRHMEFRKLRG

The assay deals with HPK1 (Homo sapiens (Human), UniProt Q92918). The assay can be described thus: HPK1 Inhibition Assay (ADP-Glo kinase assay). It is filed as biochemical. Conditions: ATP 10 μM. As for the experimental part:
A stock solution of 10 mM test compound was prepared in DMSO. The compound was prepared by 5-fold and 10-point serial dilutions with HPK1 kinase assay buffer. The HPK1 kinase assay buffer contained 40 mM Tris, pH 7.5; 20 mM MgCl2, 0.1 mg/ml BSA, and 50 μM DTT. 7.5 ng/μl of Active HPK1 (Promega, V4098) and 0.1 μg/ml MBP substrate protein were added to the reaction system. The final concentration of ATP in the HPK1 kinase reaction system was 10 μM. Serial diluted compounds were transferred to the reaction system and incubated at room temperature for 1 hr. 5 μL of ADP-Glo™ Reagent (Promega, V9101) was added and incubated for 40 min to stop the kinase reaction and deplete the unconsumed ATP. […] The luminescence was measured with a plate-reading luminometer.
The molecule `Cn1c(C(C)(C)C)nc2c(N3CC[C@@](C)(N)C3)c(NC(=O)c3ccc(=O)n(-c4c(F)cccc4F)n3)ccc21` (single isomer, unassigned) [Example 100, ®-N-(4-(3-amino-3-methylpyrrolidin-1-yl)-2-(tert-butyl)-1-methyl-1H-benzo 111 midazolezol-5-yl)-1-(2,6-difluorophenyl)-6-oxo-1,6-dihydropyridazine-3-carboxamide] showed an IC50 of less than 100 nM.
`Cn1c(C(C)(C)C)nc2c(N3CC[C@@](C)(N)C3)c(NC(=O)c3ccc(=O)n(-c4c(F)cccc4F)n3)ccc21` (single isomer, unassigned) [Example 101] had an IC50 of less than 100 nM.
With `CC(C)c1nc2c(N3CC[C@](N)(CO)C3)c(NC(=O)c3ccc(=O)n(-c4c(F)cccc4F)n3)ccc2n1C` (single isomer, unassigned) [Example 124] the figure was less than 100 nM; with `CC(C)c1nc2c(N3CC[C@](N)(CO)C3)c(NC(=O)c3ccc(=O)n(-c4c(F)cccc4F)n3)ccc2n1C` (single isomer, unassigned) [Example 125], less than 100 nM.
With `CC(C)c1nc2c(N3CC[C@](N)(C(F)(F)F)C3)c(NC(=O)c3ccc(=O)n(-c4c(F)cccc4F)n3)ccc2n1C` (single isomer, unassigned) [Example 138], the IC50 was less than 100 nM.
In the case of `CC(C)c1nc2c(N3CC[C@](N)(C(F)(F)F)C3)c(NC(=O)c3ccc(=O)n(-c4c(F)cccc4F)n3)ccc2n1C` (single isomer, unassigned) [Example 139], the IC50 is less than 100 nM.
`CC[C@@H]1CN(c2c(NC(=O)c3ccc(=O)n(-c4c(F)cccc4F)n3)ccc3c2cnn3C(C)C)C[C@@H]1N` (single isomer, unassigned) [Example 196] showed an IC50 of less than 100 nM.
Turning to `CC[C@@H]1CN(c2c(NC(=O)c3ccc(=O)n(-c4c(F)cccc4F)n3)ccc3c2cnn3C(C)C)C[C@@H]1N` (single isomer, unassigned) [Example 197], the concentration for half-maximal inhibition (IC50) is less than 100 nM.
Molecule `N[C@H]1CN(c2c(NC(=O)c3ccc(=O)n(-c4c(F)cccc4F)n3)ccc3nn(C4(C(F)(F)F)CC4)cc23)CC12CC2` (single isomer, unassigned) [Example 313] showed an IC50 of less than 100 nM.
Molecule `CC1(C)CN(c2c(NC(=O)c3ccc(=O)n(-c4c(F)cccc4F)n3)ccc3nn(C4(C(F)(F)F)CC4)cc23)C[C@@H]1N` (single isomer, unassigned) [Example 314] registered an IC50 of less than 100 nM.
The molecule `C[C@]1(O)CCN(c2cc(-c3cnccc3C#N)ccc2NC(=O)c2ccc(=O)n(-c3c(F)cccc3F)n2)C1` (single isomer, unassigned) [Example 353] yielded an IC50 of less than 100 nM.
Regarding `C[C@]1(O)CCN(c2cc(-c3cnccc3C#N)ccc2NC(=O)c2ccc(=O)n(-c3c(F)cccc3F)n2)C1` (single isomer, unassigned) [Example 354], the 50% inhibitory concentration (IC50) is less than 100 nM.
The molecule `N#Cc1ccncc1-c1ccc(NC(=O)c2ccc(=O)n(-c3c(F)cccc3F)n2)c(N2CC[C@@](N)(CO)C2)c1` (single isomer, unassigned) [Example 355] yielded an IC50 of less than 100 nM.
The value for `N#Cc1ccncc1-c1ccc(NC(=O)c2ccc(=O)n(-c3c(F)cccc3F)n2)c(N2CC[C@@](N)(CO)C2)c1` (single isomer, unassigned) [Example 356] was less than 100 nM; that for `N#Cc1ccncc1-c1ccc(NC(=O)c2ccc(=O)n(-c3c(F)cccc3F)n2)c(N2CC[C@](N)(C(F)(F)F)C2)c1` (single isomer, unassigned) [Example 358] was less than 100 nM; that for `N#Cc1ccncc1-c1ccc(NC(=O)c2ccc(=O)n(-c3c(F)cccc3F)n2)c(N2CC[C@](N)(C(F)(F)F)C2)c1` (single isomer, unassigned) [Example 359] was less than 100 nM.
Turning to `COc1cccc(F)c1-c1nccc(C(=O)Nc2ccc3c(nc(C(F)F)n3C)c2N2CCC(N)C2)c1F` (stereo in doubt) [Example 164, N-(4-((S)-3-aminopyrrolidin-1-yl)-2-(difluoromethyl)-1-methyl-1H-benzo[d]imidazol-5-yl)-3-fluoro-2-(2-fluoro-6-methoxyphenyl)isonicotinamide], the IC50 is less than 100 nM.
In the case of `CO[C@@H]1CN(c2c(NC(=O)c3ccc(=O)n(-c4c(F)cccc4F)n3)ccc3c2cnn3C(C)C)C[C@H]1N` (stereo in doubt) [Example 200, N-(4-((3R,4R)-3-amino-4-methoxypyrrolidin-1-yl)-1-isopropyl-1H-indazol-5-yl)-1-(2,6-difluorophenyl)-6-oxo-1,6-dihydropyridazine-3-carboxamide], the IC50 is less than 100 nM.
`COc1cccc(F)c1-c1nccc(C(=O)Nc2cc(F)ccc2N2C[C@@H]3C[C@H]2CN3)c1F` [Example 1, N-(2-((1S,4S)-2,5-diazabicyclo[2.2.1]heptan-2-yl)-5-fluorophenyl)-3-fluoro-2-(2-fluoro-6-methoxyphenyl)isonicotinamide] showed a 50% inhibitory concentration (IC50) of 100 to 1000 nM.
With `COc1cccc(F)c1-c1nccc(C(=O)Nc2cc(F)ccc2N2C[C@H]3C[C@@H]2CN3)c1F` [Example 2, N-(2-((1R,4R)-2,5-diazabicyclo[2.2.1]heptan-2-yl)-5-fluorophenyl)-3-fluoro-2-(2-fluoro-6-methoxyphenyl)isonicotinamide] the figure was less than 100 nM; with `COc1cccc(F)c1-c1cccc(C(=O)Nc2cc(F)ccc2N2C[C@H]3C[C@@H]2CN3)c1F` [Example 3, N-(2-((1R,4R)-2,5-diazabicyclo[2.2.1]heptan-2-yl)-5-fluorophenyl)-2,2′-difluoro-6′-methoxy-[1,1′-biphenyl]-3-carboxamide], 100 to 1000 nM; with `COc1ccc(Cl)c(F)c1-c1nccc(C(=O)Nc2cc(F)ccc2N2C[C@H]3C[C@@H]2CN3)c1F` [Example 4, N-(2-((1R,4R)-2,5-diazabicyclo[2.2.1]heptan-2-yl)-5-fluorophenyl)-2-(3-chloro-2-fluoro-6-methoxyphenyl)-3-fluoroisonicotinamide], 100 to 1000 nM.
Regarding `COc1ccc(F)c(F)c1-c1nccc(C(=O)Nc2cc(F)ccc2N2C[C@H]3C[C@@H]2CN3)c1F` [Example 5, N-(2-((1R,4R)-2,5-diazabicyclo[2.2.1]heptan-2-yl)-5-fluorophenyl)-2-(2,3-difluoro-6-methoxyphenyl)-3-fluoroisonicotinamide], the IC50 is less than 100 nM.
In the case of `COc1cccc(Cl)c1-c1nccc(C(=O)Nc2cc(F)ccc2N2C[C@H]3C[C@@H]2CN3)c1F` [Example 6, N-(2-((1R,4R)-2,5-diazabicyclo[2.2.1]heptan-2-yl)-5-fluorophenyl)-2-(2-chloro-6-methoxyphenyl)-3-fluoroisonicotinamide], the IC50 was 100 to 1000 nM.
Consider `COc1cccc(F)c1-c1nccc(C(=O)Nc2ccc3c(nc(C)n3C)c2C2C[C@H]3C[C@@H]2CN3)c1F` (stereo partly drawn) [Example 7, N-(4-((1S,4S)-2-azabicyclo[2.2.1]heptan-5-yl)-1,2-dimethyl-1H-benzo[d]imidazol-5-yl)-3-fluoro-2-(2-fluoro-6-methoxyphenyl)isonicotinamide], for which the IC50 was less than 100 nM.
Regarding `COc1cccc(F)c1-c1nccc(C(=O)Nc2ccc3c(nc(C)n3C)c2N2CCC(N)CC2)c1F` [Example 8, N-(4-(4-aminopiperidin-1-yl)-1,2-dimethyl-1H-benzo[d]imidazol-5-yl)-3-fluoro-2-(2-fluoro-6-methoxyphenyl)isonicotinamide], the IC50 was less than 100 nM.
Take `COc1cccc(F)c1-c1nccc(C(=O)Nc2ccc3c(nc(C)n3C)c2N2CCC[C@H]2CO)c1F` [Example 9, 3-fluoro-2-(2-fluoro-6-methoxyphenyl)-N-(4-((S)-2-(hydroxymethyl)pyrrolidin-1-yl)-1,2-dimethyl-1H-benzo[d]imidazol-5-yl)isonicotinamide]: the IC50 fell in the range of 100 to 1000 nM.
Molecule `COc1cccc(F)c1-c1nccc(C(=O)Nc2ccc3c(nc(C)n3C)c2N2CC[C@H](N)C2)c1F` [Example 10, N-(4-((S)-3-aminopyrrolidin-1-yl)-1,2-dimethyl-1H-benzo[d]imidazol-5-yl)-3-fluoro-2-(2-fluoro-6-methoxyphenyl)isonicotinamide] showed an IC50 of less than 100 nM.
Consider `COCCn1c(C)nc2c(N3CC[C@H](N)C3)c(NC(=O)c3ccnc(-c4c(F)cccc4OC)c3F)ccc21` [Example 11, N-(4-((S)-3-aminopyrrolidin-1-yl)-1-(2-methoxyethyl)-2-methyl-1H-benzo[d]imidazol-5-yl)-3-fluoro-2-(2-fluoro-6-methoxyphenyl)isonicotinamide], for which the IC50 is less than 100 nM.
With `COc1cccc(F)c1-c1nccc(C(=O)Nc2ccc(-c3cnccc3C#N)cc2N2CC[C@H](N)C2)c1F` [Example 12, N-(2-((S)-3-aminopyrrolidin-1-yl)-4-(4-cyanopyridin-3-yl)phenyl)-3-fluoro-2-(2-fluoro-6-methoxyphenyl)isonicotinamide] the figure was less than 100 nM.
With `COc1cccc(F)c1-c1nccc(C(=O)Nc2ccc(-c3cnccc3C#N)cc2N2C[C@@H](N)C[C@H]2CO)c1F` [Example 13, N-(2-((2S,4S)-4-amino-2-(hydroxymethyl)pyrrolidin-1-yl)-4-(4-cyanopyridin-3-yl)phenyl)-3-fluoro-2-(2-fluoro-6-methoxyphenyl)isonicotinamide] the figure was less than 100 nM; with `COc1cccc(F)c1-c1nccc(C(=O)Nc2ccc3c(nc(-c4ccncc4F)n3C)c2N2CC[C@H](N)C2)c1F` [Example 14, N-{4-[(3S)-3-aminopyrrolidin-1-yl]-2-(3-fluoropyridin-4-yl)-1-methyl-1,3-benzodiazol-5-yl}-3-fluoro-2-(2-fluoro-6-methoxyphenyl)pyridine-4-carboxamide], less than 100 nM.
